Assay results taken from ChEMBL document CHEMBL5512654, “Discovery of novel Thymol-TPP antibiotics that eradicate MRSA persisters” (Eur J Med Chem, 2024).
≈ marks a conversion by molar mass, not a printed value. Calls of active or inactive are those of the source. The calls are words filed in the database; no cut-off is given here.

How the values were obtained:
[1] = test system: Staphylococcus aureus; test: Antibacterial activity against Staphylococcus aureus ATCC 43300 assessed as inhibition of bacterial growth measured after 18 hrs by microplate reader; type: functional; conditions: read-out: MIC100
[2] = test system: Staphylococcus aureus; test: Antibacterial activity against methicillin-resistant Staphylococcus aureus USA 300 assessed as inhibition of bacterial growth measured after 18 hrs by microplate reader; type: functional; conditions: read-out: MIC100
[3] = test system: Staphylococcus aureus; test: Antibacterial activity against methicillin-resistant Staphylococcus aureus USA 3390 assessed as inhibition of bacterial growth measured after 18 hrs by microplate reader; type: functional; conditions: read-out: MIC100
[4] = test system: Pseudomonas aeruginosa; test: Antibacterial activity against Pseudomonas aeruginosa ATCC 27853 assessed as inhibition of bacterial growth measured after 18 hrs by microplate reader; type: functional
[5] = test system: Pseudomonas aeruginosa; test: Antibacterial activity against Pseudomonas aeruginosa 535 assessed as inhibition of bacterial growth measured after 18 hrs by microplate reader; type: functional
[6] = test system: Klebsiella pneumoniae; test: Antibacterial activity against Klebsiella pneumonia ATCC 700603 assessed as inhibition of bacterial growth measured after 18 hrs by microplate reader; type: functional
[7] = test system: Klebsiella pneumoniae; test: Antibacterial activity against Klebsiella pneumonia 3026 assessed as inhibition of bacterial growth measured after 18 hrs by microplate reader; type: functional
[8] = test system: Acinetobacter baumannii; test: Antibacterial activity against Acinetobacter baumannii ATCC 19606 assessed as inhibition of bacterial growth measured after 18 hrs by microplate reader; type: functional
[9] = test system: Acinetobacter baumannii; test: Antibacterial activity against Acinetobacter baumannii ATCC 1318 assessed as inhibition of bacterial growth measured after 18 hrs by microplate reader; type: functional
[10] = test system: Staphylococcus aureus; test: Bactericidal activity against methicillin-resistant Staphylococcus aureus USA 3390 assessed as reduction in CFU at 1 times of MIC concentration measured for short time by time-kill kinetics assay; type: functional, organism-based
[11] = test system: Staphylococcus aureus; test: Bactericidal activity against methicillin-resistant Staphylococcus aureus USA 3390 assessed as reduction in CFU at 4 to 8 times of MIC concentration measured after 24 hrs by time-kill kinetics assay; type: functional, organism-based
[12] = test system: Staphylococcus aureus; test: Antibacterial activity against methicillin-resistant Staphylococcus aureus USA 3390 assessed as resistance development measured after 30 generations; type: functional, organism-based
[13] = test system: Escherichia coli; test: Antibacterial activity against Escherichia coli ATCC 25922 assessed as inhibition of bacterial growth measured after 18 hrs by microplate reader; type: functional; conditions: read-out: MIC100
[14] = test system: Escherichia coli; test: Antibacterial activity against Escherichia coli 53328 assessed as inhibition of bacterial growth measured after 18 hrs by microplate reader; type: functional; conditions: read-out: MIC100
[15] = Cytotoxicity against human L02 cells incubated for 72 hrs by MTT dye reduction assay; type: toxicity, cell-based

Row | SMILES | MIC [1] [µg/mL] | MIC [2] [µg/mL] | MIC [3] [µg/mL] | further results
1 | Cc1ccc(-c2cc(C(C)C)c(O)cc2C)cc1 | 8 (≈ 33.3 µM) | 16 (≈ 66.6 µM) | 8 (≈ 33.3 µM) | 
2 | Cc1cc(O)c(C(C)C)cc1-c1cccc(C(F)(F)F)c1 | 8 (≈ 27.2 µM) | 4 (≈ 13.6 µM) | 8 (≈ 27.2 µM) | 
3 | O=C(O)c1cn(C2CC2)c2cc(N3CCNCC3)c(F)cc2c1=O [CIPROFLOXACIN] | 2 (≈ 6.04 µM) | 1 (≈ 3.02 µM) | 1 (≈ 3.02 µM) | MIC ([4]; read-out: MIC): 1 µg/mL (≈ 3.02 µM); MIC ([5]; read-out: MIC): 1 µg/mL (≈ 3.02 µM); MIC ([6]; read-out: MIC): 0.12 µg/mL (≈ 0.362 µM); MIC ([7]; read-out: MIC): 0.06 µg/mL (≈ 0.181 µM); MIC ([8]; read-out: MIC): 0.5 µg/mL (≈ 1.51 µM); MIC ([9]; read-out: MIC): 1 µg/mL (≈ 3.02 µM); Activity [10]: Active; Activity [11]: Active; Activity [12]: Active
4 | COc1ccccc1-c1cc(C(C)C)c(O)cc1C | > 64 | > 64 | > 64 | 
5 | Cc1cc(O)c(C(C)C)cc1-c1ccccc1C(=O)O | 16 (≈ 59.2 µM) | 8 (≈ 29.6 µM) | 8 (≈ 29.6 µM) | 
6 | Cc1cc(O)c(C(C)C)cc1-c1cccc(Cl)c1 | 4 (≈ 15.3 µM) | 8 (≈ 30.7 µM) | 8 (≈ 30.7 µM) | 
7 | Cc1cc(OC(=O)CCCCCCC[P+](c2ccccc2)(c2ccccc2)c2ccccc2)c(C(C)C)cc1-c1ccccc1.[Br-] |  |  |  | MIC [13]: 4 µg/mL; MIC [14]: 8 µg/mL; MIC ([4]; read-out: MIC100): 32 µg/mL; MIC ([5]; read-out: MIC100): 32 µg/mL; MIC ([6]; read-out: MIC100): 16 µg/mL; MIC ([7]; read-out: MIC100): 16 µg/mL; MIC ([8]; read-out: MIC100): 8 µg/mL; MIC ([9]; read-out: MIC100): 16 µg/mL; IC50 at 72 h [15]: 21.1 µg/mL
8 | Cc1cc(O)c(C(C)C)cc1-c1ccc(O)cc1 | > 64 | > 64 | > 64 | 
9 | Cc1cc(O)c(C(C)C)cc1-c1ccccc1 | 16 (≈ 70.7 µM) | 8 (≈ 35.3 µM) | 16 (≈ 70.7 µM) | IC50 at 72 h [15]: 13.5 µg/mL (≈ 59.5 µM)
10 | Cc1cc(O)c(C(C)C)cc1-c1ccccc1Cl | 8 (≈ 30.7 µM) | 8 (≈ 30.7 µM) | 8 (≈ 30.7 µM) | 
11 | Cc1ccccc1-c1cc(C(C)C)c(O)cc1C | 8 (≈ 33.3 µM) | 8 (≈ 33.3 µM) | 16 (≈ 66.6 µM) | 
12 | Cc1cc(O)c(C(C)C)cc1-c1ccc(C(=O)O)cc1 | 16 (≈ 59.2 µM) | 16 (≈ 59.2 µM) | 8 (≈ 29.6 µM) | 
13 | Cc1cc(O)c(C(C)C)cc1-c1cccc(C#N)c1 | 32 (≈ 127 µM) | 16 (≈ 63.7 µM) | 8 (≈ 31.8 µM) | 
14 | Cc1cc(O)c(C(C)C)cc1-c1ccc(F)cc1 | 16 (≈ 65.5 µM) | 16 (≈ 65.5 µM) | 16 (≈ 65.5 µM) | 
15 | Cc1cc(OC(=O)CCC[P+](c2ccccc2)(c2ccccc2)c2ccccc2)c(C(C)C)cc1-c1ccccc1.[Br-] |  |  |  | MIC [13]: 16 µg/mL; MIC [14]: 16 µg/mL; MIC ([4]; read-out: MIC100): 64 µg/mL; MIC ([5]; read-out: MIC100): > 64 µg/mL; MIC ([6]; read-out: MIC100): 16 µg/mL; MIC ([7]; read-out: MIC100): 32 µg/mL; MIC ([8]; read-out: MIC100): 8 µg/mL; MIC ([9]; read-out: MIC100): 8 µg/mL; IC50 at 72 h [15]: 5.04 µg/mL
16 | Cc1cc(O)c(C(C)C)cc1-c1cccc(O)c1 | 32 (≈ 132 µM) | 32 (≈ 132 µM) | 32 (≈ 132 µM) | 
17 | Cc1cccc(-c2cc(C(C)C)c(O)cc2C)c1 | 16 (≈ 66.6 µM) | 8 (≈ 33.3 µM) | 8 (≈ 33.3 µM) | 
18 | COc1cccc(-c2cc(C(C)C)c(O)cc2C)c1 | 16 (≈ 62.4 µM) | 16 (≈ 62.4 µM) | 16 (≈ 62.4 µM) | 
19 | Cc1cc(OC(=O)CCCC[P+](c2ccccc2)(c2ccccc2)c2ccccc2)c(C(C)C)cc1-c1ccccc1.[Br-] |  |  |  | MIC [13]: 16 µg/mL; MIC [14]: 8 µg/mL; MIC ([4]; read-out: MIC100): > 64 µg/mL; MIC ([5]; read-out: MIC100): > 64 µg/mL; MIC ([6]; read-out: MIC100): 32 µg/mL; MIC ([7]; read-out: MIC100): 32 µg/mL; MIC ([8]; read-out: MIC100): 16 µg/mL; MIC ([9]; read-out: MIC100): 8 µg/mL; IC50 at 72 h [15]: 8.31 µg/mL
